This note sets out measurements from patent US5418238A, “17β-substituted 4-aza-5α-androstan-3-one derivatives” (Farmitalia Carlo Erba S.R.L., priority 1992, dated 1995).

Test [1] deals with T1, 5α-reductase (Homo sapiens, UniProt P31213).
T1 construct: particulate fraction from homogenates of hyperplastic human prostates as the enzyme source; from tissue; host or cells: hyperplastic human prostate, particulate fraction (140,000 x g pellet of homogenate)
T1 sequence (P31213 1-254): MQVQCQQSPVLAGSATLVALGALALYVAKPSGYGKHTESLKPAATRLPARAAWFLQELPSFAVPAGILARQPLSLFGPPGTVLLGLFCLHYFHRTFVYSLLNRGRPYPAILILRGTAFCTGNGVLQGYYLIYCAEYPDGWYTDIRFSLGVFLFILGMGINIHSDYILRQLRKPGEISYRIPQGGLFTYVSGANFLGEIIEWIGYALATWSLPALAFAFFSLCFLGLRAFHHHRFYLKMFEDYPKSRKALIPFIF
As to the kind of experiment: In vitro assay of 5α-reductase inhibition (particulate fraction from hyperplastic human prostates, [14C]testosterone). Type of test: biochemical. As to conditions: human prostate particulate fraction, 1 μM [14C]testosterone, pH 5.5, 37° C., 30 min. On the procedure:
Inhibition of 5α-reductase was evaluated using the particulate fraction from homogenates of hyperplastic human prostates as the enzyme source. The particulate fraction was prepared centrifuging prostate homogenate at 140,000 x g. The resulting pellet, washed several times, was resuspended in buffer and stored at -80° C. in aliquots containing ≈10 mg protein/ml.
The assay for 5α-reductase was done in a final volume of 0.5 ml, in 40 mM TRIS-HCl buffer pH 5.5, containing I mM dithiothreitol, 5 mM NADPH, 1 μM [^14 C]testosterone, an aliquot of the enzyme preparation and various concentrations of the inhibitors. After 30 min incubation at 37° C. the reaction was terminated by addition of 2 ml cold diethyl ether and the organic phase was separated, evaporated under N2 and resuspended in ethyl acetate. Testosterone metabolites in this extract were separated in TLC on silica gel F 254 plates (Merck), using chloroform, acetone and n-hexane (2:1:2) as developing solvent system. Radioactivity on the plate was scanned and analysed from quantitative plots printed by a TLC-analyzer (Berthold). The fractional 5α-reduction of testosterone was calculated by relating the ^14 C-radioactivity in the 5α-reduced metabolites (5α-dihydrotesterone, […]) regions to the total radioactivity in the testosterone and 5α-reduced metabolites regions.

The test system of test [2] is 5α-reductase. As to the kind of experiment: In vivo inhibition of 5α-reductase (testosterone-induced prostate hypertrophy in castrated rats). Set-up: species or system rat. The settings on record: castrated testosterone-implanted rats, once daily for 7 days, ventral prostate weight. On the procedure: The standard test for the antiandrogenic effect in rats was used. Prepuberal 22-day-old male rats were castrated via scrotal incision under light ether anaesthesia. On the seventh day after orchiectomy, androgen replacement was performed via subcutaneous implantation of 1 cm-long Silastic® tube (Dow-Corning, model No. 602-265) filled with a mixture of 25% testosterone and 75% cholesterol. […] Twenty four hours after the last dose the rats were sacrificed and the ventral prostate was removed and weighed. Control animals (testosterone controls) received the vehicle (0.5 ml/kg of 0.5% Methocel/0.4% Tween 80). One group of castrated rats was not implanted with testosterone (castrated controls).
The mean percentage of inhibition of the T-induced hypertrophic response of the prostate was calculated according to the following formula: […]
where WTC, WCC and WI are the mean prostate weight of testosterone control, castrated control and inhibitor treated group, respectively.

SMILES strings stand for the structures.

At 5α-reductase [1], `CC(NC(=O)[C@H]1CC[C@H]2[C@@H]3CC[C@H]4NC(=O)C=C[C@]4(C)[C@H]3CC[C@]12C)C(=O)C(F)(F)F` (stereo partly drawn) [Compound 5, N-[1,1,1-trifluoro-2-oxobut-3-yl]3-oxo-4-aza-5α-androst-1-ene-17β-carboxamide] gave an IC50 of 16 nM. In addition, the “% Inhibition of prostate weight at 3 mg/kg/day p.o.” value in the test on 5α-reductase [2] is 58%.
Turning to `CC(C)C(NC(=O)[C@H]1CC[C@H]2[C@@H]3CC[C@H]4NC(=O)C=C[C@]4(C)[C@H]3CC[C@]12C)C(=O)C(F)(F)F` (stereo partly drawn) [Compound 7, N-[1,1,1-trifluoro-4-methyl-2-oxopent-3-yl]3-oxo-4-aza-5α-androst-1-ene-17β-carboxamide], the 50% inhibitory concentration (IC50) against 5α-reductase [1] came out at 8 nM.
For `CC(C)(NC(=O)[C@H]1CC[C@H]2[C@@H]3CC[C@H]4NC(=O)C=C[C@]4(C)[C@H]3CC[C@]12C)C(=O)C(F)(F)F` [Compound 22, N-[1,1,1-trifluoro-3-methyl-2-oxobut-3-yl]3-oxo-4-aza-5α-androst-1-ene-17β-carboxamide], 14 nM corresponded to half-maximal inhibition at 5α-reductase [1] (IC50). The “% Inhibition of prostate weight at 3 mg/kg/day p.o.” value with 5α-reductase [2] was determined as 50%.
